In US20060142397A1, “Use of a pparalpha agonist and metormin for decreasing the serum triglycerides” (priority 2002, published 2006):
Where two headings read alike, the source gives them in different places. Marks after values point to notes of the source that are not given here.

Assays:
[1] = test system: ob/ob mice; conditions: for Serum triglycerides T0 + 10: after 10 days of treatment once a day, 100 mg/kg of each drug; for Serum triglycerides T0 + 10 / Serum triglycerides T0: mean ± sem, n=10; for Serum triglycerides T0: beginning of study (T0, baseline), groups later treated once a day with 100 mg/kg of each drug
Protocol: Studies were designed to evaluate the effects of fenofibrate, a PPARα agonist, and metformin as a combination therapy, on triglycerides level in ob/ob mice.
Male homozygous C57BL/Ks/Ola/Hsd/lep ob/ob mice were stabilized for 2 weeks in the animal facilities in a temperature-, humidity- and light-controlled room (21-23° C., 12-12 h light-dark cycle). […] After acclimatization, they were randomized into groups of 10 based on body weight, as follows:
Met 100=mice treated once a day with metformin, 100 mg/kg
Feno 100=mice treated once a day with fenofibrate, 100 mg/kg
Feno100-Met100=mice treated once a day with fenofibrate, 100 mg/kg and metformin, 100 mg/kg.
Serum triglycerides (expressed in g/l) were measured at the beginning and the end of the study for each group.
Statistics: All data were subjected to covariance analysis followed by Tukey test.

[2] = test system: db/db mice; conditions: for Triglycerides % var. T0/T15: 14 days gavage; for Triglycerides T0: T0 (baseline); for Triglycerides T0 / Triglycerides T15: mean ± SEM; for Triglycerides T15: T15 after 14 days gavage
Protocol: Studies were designed to evaluate the effects of fenofibrate, a PPARα agonist, and metformin as a combination therapy, on triglycerides level in db/db mice.
Male 11/12 weeks old […] J Rj-db (db/db) mice (Janvier, France) were housed in a temperature (19.5-24.5° C.), relative humidity (40-70%) and 12-12 h light-dark cycle (light 7:00 a.m. to 7:00 p.m.)-controlled room, with ad libitum access to filtered (0.22 μm) tap-water and irradiated pelleted laboratory chow (ref. A04, U.A.R., France) throughout the study. They were housed 5 per cage and a 21-day acclimatization period was observed.
The mice were treated during 14 consecutive days (T1 to T14), with morning and afternoon gavages with the various treatments as described below.
At T15, the mice were weighed and blood samples collected without anticoagulant by retro-orbital puncture under CO2/O2 anesthesia.
Triglycerides were measured at T0 and T15 using the multi-parametric analyzer.
Veh/Veh=Vehicle in morning/Vehicle in the afternoon
A300/Veh=metformin, 300 mg/kg in the morning/Vehicle in the afternoon
B100/B100=fenofibrate, 100 mg/kg in the morning/fenofibrate, 100 […]
A300B100/B100=metformin, 300 mg/kg in the morning, and fenofibrate, 100 mg/kg in the morning/fenofibrate, 100 mg/kg in the afternoon
A100/Veh=metformin, 100 mg/kg in the morning/Vehicle in the afternoon
B30/B30=fenofibrate, 30 mg/kg in the morning/fenofibrate, 30 mg/kg in the afternoon
A100B30/B30=metformin, 100 mg/kg in the morning, and fenofibrate, 30 mg/kg […]/fenofibrate, 30 mg/kg in the afternoon

[3] = test system: Zucker rats; conditions: obese Zucker rats, 30 days, fenofibrate 30 mg/kg p.o. once daily and/or metformin 150 mg/kg p.o. twice daily; for Body weight gain: mean ± SEM, n=8
Protocol: Studies were designed to evaluate the effects of fenofibrate, a PPARα agonist, and metformin as a combination therapy, on body weight in Zucker rats.
Male homozygous Zucker rats of 9 to 11 weeks of age and their lean controls were randomised into groups of 8, based on body weight and fasting plasma insulin levels.
The experimental groups were: • Lean rats, untreated; • Obese rats, treated with the vehicle p.o., twice daily • Obese rats, treated with Fenofibrate, 30 mg/kg, p.o., once daily • Obese rats, treated with Metformin, 150 mg/kg, p.o., twice daily • Obese rats, treated with Fenofibrate, 30 mg/kg, p.o., once daily and metformin, 150 mg/kg, p.o., twice daily.
Body weight was recorded every day during 30 days.

[4] = metformin 100 mg/kg morning and/or fenofibrate 30 mg/kg twice daily
[5] = metformin 300 mg/kg morning and/or fenofibrate 100 mg/kg morning and afternoon
[6] = high-dose groups: metformin 300 mg/kg morning and/or fenofibrate 100 mg/kg morning and afternoon
[7] = low-dose groups: metformin 100 mg/kg morning and/or fenofibrate 30 mg/kg twice daily

| Compound | Serum triglycerides T0 + 10 [1] | Serum triglycerides T0 [1] | Triglycerides % var. T0/T15 [2, 4] | Triglycerides % var. T0/T15 [2, 5] | Triglycerides T0 [2, 6] | Triglycerides T0 [2, 7] | Triglycerides T15 [2, 4] | Triglycerides T15 [2, 5] | Body weight gain (% of change vs vehicle treated group) [3] | Body weight gain [3] | Effect on triglycerides level (in words) ([1]; 10 days, 100 mg/kg once a day) | Effect on triglycerides level (in words) ([2]; 14 days treatment) |
| --- | --- | --- | --- | --- | --- | --- | --- | --- | --- | --- | --- | --- |
| CC(C)OC(=O)C(C)(C)Oc1ccc(C(=O)c2ccc(Cl)cc2)cc1 [Fenofibrate, fenofibrate] | 0.69 ± 0.03 g/L | 0.72 ± 0.06 g/L | −42.3* % | −53.5* % | 1.89 ± 0.13 g/L | 1.72 ± 0.12 g/L | 0.97 ± 0.08 g/L | 0.85 ± 0.08 g/L | −26% | 52.0 ± 5.8 g | – | – |
| CN(C)C(=N)N=C(N)N [Metformin, metformin] | 0.74 ± 0.04 g/L | 0.68 ± 0.03 g/L | 7.3° % | −3.3° % | 1.81 ± 0.14 g/L | 1.68 ± 0.12 g/L | 1.79 ± 0.16° g/l | 1.67 ± 0.06 g/L | −5% | 67.2 ± 4.0 g | no effects | no reduction in triglycerides level |
